From patent US20090239841A1, “Diaryl Ureas as CB1 Antagonists” (priority 2004, published 2009)

biological target: T1, hCB1 (Homo sapiens, UniProt P21554); test: Agonist-induced GTP binding (GTPγ35S) assay at CB1, Example 8; type: biochemical; settings: IC50 at CB1, determined as described in Example 8; read-out: IC50
T1 construct: made in house; host or cells: Sf9 insect cells (baculovirus), P2 membranes
Method in brief: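 Membranes from Sf9 cells co-expressing hCB1 and heterotrimeric G-protein (10 μg protein) in Tris pH 7.4 buffer with 5 μM GDP. Test compounds (10^−10–10^−5 M) competed against 1 nM CP55,940 with […] GTPγ35S, 60 min at room temperature. Filter-bound radioactivity by scintillation, expressed as percent above basal.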

T1 sequence (P21554 whole entry): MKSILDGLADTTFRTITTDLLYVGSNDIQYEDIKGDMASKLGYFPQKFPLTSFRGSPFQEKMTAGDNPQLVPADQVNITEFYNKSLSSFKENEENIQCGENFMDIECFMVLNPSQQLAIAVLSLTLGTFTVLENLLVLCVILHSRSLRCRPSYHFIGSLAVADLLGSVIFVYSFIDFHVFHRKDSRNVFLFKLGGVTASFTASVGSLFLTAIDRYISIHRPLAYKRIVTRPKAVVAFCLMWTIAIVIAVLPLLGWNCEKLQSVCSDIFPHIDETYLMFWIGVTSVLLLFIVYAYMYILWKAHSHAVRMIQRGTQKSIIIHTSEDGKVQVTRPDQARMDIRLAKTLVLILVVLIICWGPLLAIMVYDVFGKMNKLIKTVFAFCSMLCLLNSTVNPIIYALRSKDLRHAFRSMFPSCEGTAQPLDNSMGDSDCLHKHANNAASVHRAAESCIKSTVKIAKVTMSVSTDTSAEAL

IC50 [µM]	SMILES
< 2	Cc1ccc2nc(NC(=O)Nc3ccccc3)sc2c1 [Compound 323, 1-(6-methyl-1,3-benzothiazol-2-yl)-3-phenylurea]
< 2	COC(=O)c1cccc(NC(=O)Nc2cccc(OC(F)F)c2)c1 [Compound 676, methyl 3-[({[3-(difluoromethoxy)phenyl]amino}carbonyl)amino]benzoate]
< 2	CCOC(=O)c1cccc(NC(=O)Nc2cccc(OC(F)F)c2)c1 [Compound 782, ethyl 3-[({[3-(difluoromethoxy)phenyl]amino}carbonyl)amino] benzoate]
< 2	CCCc1ccc(NC(=O)Nc2ccc(Cl)cc2)cc1 [Compound 336, 1-(4-chlorophenyl)-3-(4-propylphenyl)urea]
< 2	CC(=O)c1ccc(NC(=O)Nc2ccc(C)c(F)c2)cc1 [Compound 450, 1-(4-acetylphenyl)-3-(3-fluoro-4-methylphenyl)urea]
< 2	CCc1ccc(NC(=O)Nc2cc(OC)ncn2)cc1 [Compound 642, 1-(4-ethylphenyl)-3-(6-methoxypyrimidin-4-yl)urea]
< 2	COc1ccc(NC(=O)Nc2ccc(C(C)=O)cc2)cc1 [Compound 410, 1-(4-acetylphenyl)-3-(4-methoxyphenyl)urea]
< 2	COc1cccc(NC(=O)Nc2ccc(C(=O)OC(C)C)cc2)c1 [Compound 597, isopropyl 4-({[(3-methoxyphenyl)amino]carbonyl}amino)benzoate]
< 2	COC(=O)c1ccc(NC(=O)Nc2cccc(F)c2)cc1 [Compound 471, methyl 4-({[(3-fluorophenyl)amino]carbonyl}amino)benzoate]
< 2	CC(C)Oc1ccc(NC(=O)Nc2ccc(C#N)cc2)cc1 [Compound 421, 1-(4-cyanophenyl)-3-(4-isopropoxyphenyl)urea]
< 2	Cc1ccc(NC(=O)Nc2ccc(F)c(F)c2)cc1F [Compound 774, 1-(3,4-difluorophenyl)-3-(3-fluoro-4-methylphenyl)urea]
< 2	CCc1cccc(NC(=O)Nc2ccc(C(C)=O)cc2)c1 [Compound 341, 1-(4-acetylphenyl)-3-(3-ethylphenyl)urea]
< 2	CCOc1cccc(NC(=O)Nc2ccc(C)cc2C)c1 [Compound 703, 1-(2,4-dimethylphenyl)-3-(3-ethoxyphenyl)urea]
< 2	CCCOc1ccc(NC(=O)Nc2cccc(Cl)c2)cc1 [Compound 397, 1-(3-chlorophenyl)-3-(4-propoxyphenyl)urea]
< 2	O=C(Nc1cccc(OC(F)F)c1)Nc1ccccc1OC(F)F [Compound 539, 1-[2-(difluoromethoxy)phenyl]-3-[3-(difluoromethoxy)phenyl]urea]
< 2	CCCOc1ccc(NC(=O)Nc2ccc([N+](=O)[O-])cc2)cc1 [Compound 562, 1-(4-nitrophenyl)-3-(4-propoxyphenyl)urea]
< 2	COCc1ccc(NC(=O)Nc2cccc(F)c2)cc1 [Compound 360, 1-(3-fluorophenyl)-3-[4-(methoxymethyl)phenyl]urea]
< 2	COc1cccc(NC(=O)Nc2ccc(C)c(Cl)c2)c1 [Compound 621, 1-(3-chloro-4-methylphenyl)-3-(3-methoxyphenyl)urea]
< 2	CCOC(=O)c1ccc(NC(=O)Nc2cccc(F)c2)cc1 [Compound 475, ethyl 4-({[(3-fluorophenyl)amino]carbonyl}amino)benzoate]
< 2	COCc1ccc(NC(=O)Nc2ccc(C(C)C)cc2)cc1 [Compound 572, 1-(4-isopropylphenyl)-3-[4-(methoxymethyl)phenyl]urea]
< 2	COCc1ccc(NC(=O)Nc2cccc(C(C)=O)c2)cc1 [Compound 414, 1-(3-acetylphenyl)-3-[4-(methoxymethyl)phenyl]urea]
< 2	CCc1ccc(NC(=O)Nc2cccc(COC)c2)cc1 [Compound 391, 1-(4-ethylphenyl)-3-[3-(methoxymethyl)phenyl]urea]
< 2	CC(C)c1ccc(NC(=O)Nc2cccc(C#N)c2)cc1 [Compound 346, 1-(3-cyanophenyl)-3-(4-isopropylphenyl)urea]
< 2	Cc1cccc(NC(=O)Nc2ccc(-n3cnc(Cl)c3Cl)cc2)c1 [Compound 319, 1-[4-(4,5-dichloro-1H-imidazol-1-yl)phenyl]-3-(3-methylphenyl)urea]
< 2	CC(=O)c1ccc(NC(=O)Nc2ccc(F)c(F)c2)cc1 [Compound 452, 1-(4-acetylphenyl)-3-(3,4-difluorophenyl)urea]
< 2	CCc1cccc(NC(=O)Nc2cccc(OC(F)F)c2)c1 [Compound 406, 1-[3-(difluoromethoxy)phenyl]-3-(3-ethylphenyl)urea]
< 2	CCc1ccc(NC(=O)Nc2ccc(C)cn2)cc1 [Compound 641, 1-(4-ethylphenyl)-3-(5-methylpyridin-2-yl)urea]
< 2	Cc1ccc(NC(=O)Nc2ccc(C(C)C)cc2)cc1 [Compound 300, 1-(4-isopropylphenyl)-3-(4-methylphenyl)urea]
< 2	Cc1cccc(NC(=O)Nc2ccc(OC(C)C)cc2)c1 [Compound 365, 1-(4-isopropoxyphenyl)-3-(3-methylphenyl)urea]

same assay, conditions: Table I; IC50 at CB1, GTP binding with 1 nM CP55,940; read-out: IC50

IC50 [µM]	SMILES
< 2	Cc1cccc(NC(=O)Nc2ccc(OC(F)F)cc2)c1 [Compound 18, N-[4-(difluoromethoxy)phenyl]-N′-(3-methylphenyl)urea]
< 2	CCc1ccc(NC(=O)Nc2ccc(CC)cc2)cc1 [Compound 21, N,N′-bis(4-ethylphenyl)urea]
< 2	CCc1ccc(NC(=O)Nc2cccc(OC)c2)cc1 [Compound 57, N-(4-ethylphenyl)-N′-(3-methoxyphenyl)urea]

same assay, conditions: Table II; IC50 at CB1, GTP binding with 1 nM CP55,940; read-out: IC50

IC50 [µM]	SMILES
< 2	CCc1ccc(NC(=O)Nc2ccc(OC)cc2)cc1 [Compound 228, N-(4-ethylphenyl)-N′-(4-methoxyphenyl)urea]
< 2	O=C(Nc1ccc(OC(F)F)cc1)Nc1ccc(C(F)(F)F)nc1 [Compound 76, N-[4-(difluoromethoxy)phenyl]-N′-[6-(trifluoromethyl)pyridin-3-yl]urea]
< 2	CC(C)c1ccc(NC(=O)Nc2ccc(F)cc2)cc1 [Compound 176, N-(4-fluorophenyl)-N′-(4-isopropylphenyl)urea]
< 2	Cc1noc(C)c1-c1cccc(NC(=O)Nc2ccc(OC(F)F)cc2)c1 [Compound 115, N-[4-(difluoromethoxy)phenyl]-N′-[3-(3,5-dimethylisoxazol-4-yl)phenyl]urea]
< 2	O=C(Nc1ccccc1)Nc1cccc(OC(F)F)c1 [Compound 225, N-[3-(difluoromethoxy)phenyl]-N′-phenylurea]
< 2	CCc1ccc(NC(=O)Nc2cnc3ccccc3c2)cc1 [Compound 125, N-(4-ethylphenyl)-N′-quinolin-3-ylurea]
< 2	CCCOc1ccc(NC(=O)Nc2ccc(C#N)cc2)cc1 [Compound 272, N-(4-cyanophenyl)-N′-(4-propoxyphenyl)urea]
< 2	COCc1ccc(NC(=O)Nc2cccc(Cl)c2)cc1 [Compound 241, N-(3-chlorophenyl)-N′-[4-(methoxymethyl)phenyl]urea]
< 2	Cc1ccc(NC(=O)Nc2ccc(C)c(F)c2)cc1 [Compound 160, N-(3-fluoro-4-methylphenyl)-N′-(4-methylphenyl)urea]
< 2	COc1ccc(NC(=O)Nc2cccc(C#N)c2)cc1 [Compound 259, N-(3-cyanophenyl)-N′-(4-methoxyphenyl)urea]
